Measured values as given in ChEMBL document CHEMBL1201862, “PubChem BioAssay data set” (2004).
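Grown in 96-well plates, cells were treated for 48 hours with each compound at five concentrations. Insufficient inhibition: endpoint recorded as highest concentration tested. Here, GI50 denotes the concentration required for 50% inhibition of growth.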 The source made the active and inactive calls. Cut-off read from the data, not from the text of the source: active = GI50 up to about 1.1 µM and inactive = higher.

Experiments:
Test in all cases: inhibition of tumour cell growth, NCI panel, 48 h
LOX IMVI = system: LOX IMVI
MDA-MB-435 = system: MDA-MB-435
BT-549 = system: BT-549
NCI-H226 = system: NCI-H226
CCRF-CEM = system: CCRF-CEM
OVCAR-5 = system: OVCAR-5
COLO 205 = system: COLO 205
IGROV-1 = system: IGROV-1
EKVX = system: EKVX
U-251 = system: U-251
DU-145 = system: DU-145
SF-539 = system: SF-539
SF-295 = system: SF-295
786-0 = system: 786-0
HOP-62 = system: HOP-62
UACC-62 = system: UACC-62
SW-620 = system: SW-620
HCT-116 = system: HCT-116
SK-OV-3 = system: SK-OV-3
OVCAR-8 = system: OVCAR-8

Row | SMILES | GI50 (LOX IMVI) | GI50 (MDA-MB-435) | GI50 (BT-549) | GI50 (NCI-H226) | GI50 (CCRF-CEM) | GI50 (OVCAR-5) | GI50 (COLO 205) | GI50 (IGROV-1) | GI50 (EKVX) | GI50 (U-251) | GI50 (DU-145) | GI50 (SF-539) | GI50 (SF-295) | GI50 (786-0) | GI50 (HOP-62) | GI50 (UACC-62) | GI50 (SW-620) | GI50 (HCT-116) | GI50 (SK-OV-3) | GI50 (OVCAR-8)
1 | COc1ccc(C2(CC(C)C)CCN(S(=O)(=O)c3ccc(C)cc3)C2)cc1OC (stereo unspecified) | 19.5 µM (inactive) | 21.8 µM (inactive) | 71.1 µM (inactive) | 22.5 µM (inactive) | 17.9 µM (inactive) | > 100 µM (inactive) | 25.8 µM (inactive) | 50.2 µM (inactive) | 76.9 µM (inactive) | 36.2 µM (inactive) | 36 µM (inactive) | 37 µM (inactive) | 36.5 µM (inactive) | 27.8 µM (inactive) | 45.5 µM (inactive) | 43.9 µM (inactive) | 99.5 µM (inactive) | 20.2 µM (inactive) | 36.9 µM (inactive) | 
2 | CCCCCc1cc(CCCC)sc1-c1ccco1 | 49.9 µM (inactive) | 66.5 µM (inactive) | > 100 µM (inactive) | > 100 µM (inactive) | 30.5 µM (inactive) | > 87.3 µM (inactive) | > 100 µM (inactive) | > 100 µM (inactive) | > 87.1 µM (inactive) | > 76.7 µM (inactive) | > 100 µM (inactive) | > 93.8 µM (inactive) | > 85.5 µM (inactive) | > 100 µM (inactive) | > 100 µM (inactive) | > 100 µM (inactive) | > 100 µM (inactive) | 29.6 µM (inactive) | > 100 µM (inactive) | > 100 µM (inactive)
3 | COCCN(CCNC(=O)c1cccc2c(N)c3cccc(C)c3nc12)CCOC | 1.04 µM (active) | 1.83 µM (inactive) | 5.7 µM (inactive) | 1.03 µM (active) | 1.14 µM (inactive) | 2.2 µM (inactive) | 0.436 µM (active) | 0.571 µM (active) | 1.31 µM (inactive) | 3.47 µM (inactive) | 1.28 µM (inactive) | 0.931 µM (active) | 2.77 µM (inactive) | 0.562 µM (active) | 0.948 µM (active) | 2.94 µM (inactive) | 0.491 µM (active) | 0.9 µM (active) | 5.16 µM (inactive) | 0.807 µM (active)
4 | Cn1c(=O)c2c(nc3n(C)c(=O)c4ccccc4n23)n(C)c1=O | 38.7 µM (inactive) | > 100 µM (inactive) | > 80.4 µM (inactive) | 30 µM (inactive) | 13.5 µM (inactive) | > 100 µM (inactive) | > 93.5 µM (inactive) | > 95.9 µM (inactive) | > 100 µM (inactive) | 34 µM (inactive) | 21.9 µM (inactive) | 34.8 µM (inactive) | 22.4 µM (inactive) | 29.6 µM (inactive) | 21 µM (inactive) | 28.9 µM (inactive) | 42.2 µM (inactive) | 71 µM (inactive) | 37.8 µM (inactive) | 33 µM (inactive)
5 | COc1cc2c(c(OC)c1O)-c1ccc(OC)c(=O)cc1[C@@H](NC(=O)C(F)(F)F)CC2 | 0.163 µM (active) | 0.0206 µM (active) | 1.98 µM (inactive) | 0.391 µM (active) | 0.0519 µM (active) |  | 0.0352 µM (active) | 0.229 µM (active) | 1.53 µM (inactive) | 0.324 µM (active) | 0.361 µM (active) | 0.0243 µM (active) | 0.392 µM (active) | 0.327 µM (active) | 0.192 µM (active) | 0.0387 µM (active) | 0.0376 µM (active) | 0.0474 µM (active) | 0.191 µM (active) | 0.243 µM (active)
6 | Cc1oc(N)c(S(=O)(=O)/C(C#N)=C/c2ccccc2[N+](=O)[O-])c1C | 14 µM (inactive) | 32.7 µM (inactive) | 17.5 µM (inactive) | 58.3 µM (inactive) | 24.1 µM (inactive) | 20.6 µM (inactive) | 21.7 µM (inactive) | 24.9 µM (inactive) | 33.7 µM (inactive) | 19.5 µM (inactive) | 62.4 µM (inactive) | 25.5 µM (inactive) | 33.9 µM (inactive) | 30.5 µM (inactive) | 31.1 µM (inactive) | 20.7 µM (inactive) | 26.6 µM (inactive) | 20.8 µM (inactive) | > 100 µM (inactive) | 
7 | COc1c(N2CCCCC2)c2c(=O)c3ccccc3oc2c2cc(C)oc12 | 14 µM (inactive) | 28.6 µM (inactive) | 21.5 µM (inactive) | 13.3 µM (inactive) | 8.63 µM (inactive) | 23.5 µM (inactive) | 4.09 µM (inactive) |  | 25.9 µM (inactive) | 24.4 µM (inactive) | 17.9 µM (inactive) | 35.9 µM (inactive) | 18.8 µM (inactive) | 6.35 µM (inactive) | 9.91 µM (inactive) | 17.8 µM (inactive) | 8.81 µM (inactive) | 2.34 µM (inactive) | 28.1 µM (inactive) | 16.9 µM (inactive)
8 | O=S1(=O)OCCOS(=O)(=O)C1F | > 100 µM (inactive) | > 100 µM (inactive) | 0.0293 µM (active) | > 100 µM (inactive) | > 100 µM (inactive) | > 100 µM (inactive) | > 100 µM (inactive) |  | > 100 µM (inactive) | > 100 µM (inactive) | > 100 µM (inactive) | 43.6 µM (inactive) | > 100 µM (inactive) | > 100 µM (inactive) | > 100 µM (inactive) | > 100 µM (inactive) | > 100 µM (inactive) | > 100 µM (inactive) | > 100 µM (inactive) | > 100 µM (inactive)
9 | CC/C=C\C=C/C(=O)N/C=C/CCC | > 100 µM (inactive) | > 100 µM (inactive) | > 100 µM (inactive) | > 100 µM (inactive) | 4.27 µM (inactive) | > 100 µM (inactive) |  | > 100 µM (inactive) | > 100 µM (inactive) | > 100 µM (inactive) | > 100 µM (inactive) | > 100 µM (inactive) |  | > 100 µM (inactive) | > 100 µM (inactive) | 47.2 µM (inactive) | > 100 µM (inactive) | 38.9 µM (inactive) | > 100 µM (inactive) | > 100 µM (inactive)
10 | NC1CCC(N(CC(=O)O)CC(=O)O)C(N(CC(=O)O)CC(=O)O)C1 (stereo unspecified) | > 100 µM (inactive) | > 100 µM (inactive) | > 100 µM (inactive) | > 100 µM (inactive) | > 100 µM (inactive) | > 100 µM (inactive) | > 100 µM (inactive) | > 100 µM (inactive) |  | > 100 µM (inactive) | > 100 µM (inactive) | > 100 µM (inactive) | > 100 µM (inactive) | > 10 µM (inactive) | > 100 µM (inactive) | > 100 µM (inactive) | > 100 µM (inactive) | > 100 µM (inactive) | > 100 µM (inactive) | > 100 µM (inactive)
11 | Nc1nc(N)c2c3c(cnc2n1)CC(c1ccccc1)CC3 (stereo unspecified) | 1.71 µM (inactive) | 6.76 µM (inactive) | 17 µM (inactive) | 93.1 µM (inactive) |  | 14.3 µM (inactive) | 35 µM (inactive) | 0.728 µM (active) | 11.2 µM (inactive) | 10.7 µM (inactive) | 25.4 µM (inactive) | 14.3 µM (inactive) | 10.1 µM (inactive) | 7.83 µM (inactive) | 21.6 µM (inactive) | 1.11 µM (active) | 11.4 µM (inactive) | 2.86 µM (inactive) | 21.5 µM (inactive) | 7.16 µM (inactive)
